The target of the experiment is human GPR17 short isoform (Homo sapiens, UniProt Q13304). The experiment can be described thus: GPR17 cAMP assay (antagonist mode, TR-FRET cAMP detection). The experiment is classed as cell-based. Conditions: CHO-K1 cells stably expressing human GPR17 short isoform; with EC80 concentration of agonist MDL29,951, IBMX 0.5mM, forskolin 15µM; normalized to reference antagonist; read-out: hGPR17 cAMP IC50. Put shortly: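 CHO-K1 cells stably expressing untagged human GPR17 short isoform, preincubated with compounds in HBSS/HEPES/0.1% BSA pH 7.4 plus EC80 MDL29,951 and 0.5 mM IBMX; forskolin (15 µM final) added after 5 min, then 30 min at room temperature. cAMP read by TR-FRET after 90 min lysis; normalized to reference antagonist maximum, sigmoidal fit.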
Background: cAMP levels reflect the balance of adenylyl cyclase and phosphodiesterase activity.

The values that follow come from patent publication EP4562004B1, “NOVEL 7-SUBSTITUTED INDOLE SULFONAMIDE DERIVATIVES” (F. Hoffmann-La Roche AG, priority 2022, dated 2024).

Sequence of human GPR17 short isoform (Q13304 29-367): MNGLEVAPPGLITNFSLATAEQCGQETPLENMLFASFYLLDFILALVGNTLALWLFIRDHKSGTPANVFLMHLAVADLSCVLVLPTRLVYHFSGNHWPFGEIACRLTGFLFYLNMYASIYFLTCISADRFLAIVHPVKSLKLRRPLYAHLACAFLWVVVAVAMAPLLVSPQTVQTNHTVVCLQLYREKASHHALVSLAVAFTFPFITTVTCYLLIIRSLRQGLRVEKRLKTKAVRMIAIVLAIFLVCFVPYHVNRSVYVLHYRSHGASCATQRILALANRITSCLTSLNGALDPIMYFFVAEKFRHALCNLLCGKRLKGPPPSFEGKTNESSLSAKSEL

Broadly, the IC50 is the concentration that inhibits the measured activity by half. Take `COc1nc(NS(=O)(=O)c2c[nH]c3c(-n4cc(F)cn4)c(Cl)ccc23)nc(OC)c1OC(F)F` [Example 48, 6-chloro-N-[5-(difluoromethoxy)-4,6-dimethoxy-pyrimidin-2-yl]-7-(4-fluoropyrazol-1-yl)-1H-indole-3-sulfonamide]: the IC50 is 69 nM.

For the compound `COc1nc(NS(=O)(=O)c2c[nH]c3c(-n4ccc(F)n4)c(Cl)ccc23)nc(OC)c1CC(F)F` [Example 55, 6-chloro-N-[5-(2,2-difluoroethyl)-4,6-dimethoxy-pyrimidin-2-yl]-7-(3-fluoropyrazol-1-yl)-1H-indole-3-sulfonamide], the IC50 was determined as 25 nM. Regarding `COc1nc(NS(=O)(=O)c2c[nH]c3c(-n4nccn4)c(Cl)ccc23)nc(OC)c1CCC#N` [Example 61, 6-chloro-N-[5-(2-cyanoethyl)-4,6-dimethoxy-pyrimidin-2-yl]-7-(triazol-2-yl)-1H-indole-3-sulfonamide], the IC50 came out at 29 nM.

Consider `COc1nc(NS(=O)(=O)c2c[nH]c3c(-n4ccnc4C)cccc23)nc(OC)c1CC(F)F` [Example 5, N-[5-(2,2-difluoroethyl)-4,6-dimethoxy-pyrimidin-2-yl]-7-(2-methylimidazol-1-yl)-1H-indole-3-sulfonamide], for which the IC50 is 48 nM. For `COc1nc(NS(=O)(=O)c2c[nH]c3c(-n4nccn4)cccc23)nc(OC)c1OCCF` [Example 19, N-[5-(2-fluoroethoxy)-4,6-dimethoxy-pyrimidin-2-yl]-7-(triazol-2-yl)-1H-indole-3-sulfonamide], the 50% inhibitory concentration (IC50) was 316 nM.

For `COc1nc(NS(=O)(=O)c2c[nH]c3c(-n4nccn4)c(Cl)ccc23)nc(OC)c1OC(F)(F)CF` [Example 57, 6-chloro-N-[4,6-dimethoxy-5-(1,1,2-trifluoroethoxy)pyrimidin-2-yl]-7-(triazol-2-yl)-1H-indole-3-sulfonamide], the half-inhibitory concentration (IC50) was found to be 85 nM. As for `COc1nc(NS(=O)(=O)c2c[nH]c3c(-n4ccnc4)c(Cl)ccc23)nc(OC)c1OCC(F)F` [Example 6, 6-chloro-N-[5-(2,2-difluoroethoxy)-4,6-dimethoxy-pyrimidin-2-yl]-7-imidazol-1-yl-1H-indole-3-sulfonamide], the IC50 stood at 50 nM. With `COc1nc(NS(=O)(=O)c2c[nH]c3c(-n4cccn4)c(C(F)F)ccc23)nc(OC)c1OCCF` [Example 51, 6-(difluoromethyl)-N-[5-(2-fluoroethoxy)-4,6-dimethoxy-pyrimidin-2-yl]-7-pyrazol-1-yl-1H-indole-3-sulfonamide], the IC50 was 94 nM. Then `COc1nc(NS(=O)(=O)c2c[nH]c3c(-n4cncn4)c(Cl)ccc23)nc(OC)c1CC(F)F` [Example 37, 6-chloro-N-[5-(2,2-difluoroethyl)-4,6-dimethoxy-pyrimidin-2-yl]-7-(1,2,4-triazol-1-yl)-1H-indole-3-sulfonamide], with 60 nM.
